A short description of data set [1]: Quantum yield of europium complexes at different pH. The class given is physicochemical. The note with it: text gives the same values in %. The method, then:
The properties of representative complexes of the invention (complexes 14, 18, 21, 78a, 78b, 88a, 88b, 93, 104) were investigated. The presence of the Boc-group was not predicted to alter these properties. The experiments were thus carried out with the Boc group for the functionalized complexes. […]
(§1) Traditionally, molar extinction coefficients, ε, are calculated using the Beer-Lambert equation and involve measuring the absorbance of a series of solutions of a complex at different known concentrations. A plot of absorbance at a particular wavelength against concentration allows determination of ε from the gradient of the linear correlation. The quantum yield (QY) of the complexes increases as the pH decreases. For complexes 78b, 88a, 88b and 93, the quantum yield at pH 8 is approaching 0 meaning that the complexes are therefore hardly emissive at physiological pH and conversely, these complexes are very bright at pH 4.

A short description of data set [2]: pKa determination from emission lifetime variation versus pH. The note with it: 295 K, I = 0.1M NaCl.
Experimental: (§2) An emission lifetime value at each pH was obtained by plotting the decay of the emission lifetime over time and fitting the curve to a simple exponential decay model. The pKa values of the complexes were determined for the reversible protonation.
Data set [3] can be described thus: Absorption spectra / molar extinction coefficient (Beer-Lambert). The class given is physicochemical. The method, then: The properties of representative complexes of the invention (complexes 14, 18, 21, 78a, 78b, 88a, 88b, 93, 104) were investigated. The presence of the Boc-group was not predicted to alter these properties. The experiments were thus carried out with the Boc group for the functionalized complexes. The absorption and emission spectra were recorded in a pH gradient (pH 4 to pH 10).
as §1
This could be useful as excitation at, or near, this wavelength would allow equal excitation of both the unprotonated and protonated complex, which exist in a pH-dependent equilibrium in solution. An isosbestic point was not observed for Complex 14.

The nature of data set [4]: Excited state (emission) lifetime at different pH. The data set is classed as physicochemical.
Experimental: as §2
Data set [5] can be described thus: Time-gated emission intensity, pH 4/pH 8 ratio. The data set is classed as physicochemical. The note with it: λem=613.5 nm. The source says:
Data was normalised for a 60 μs delay at pH 4.
Data were normalised for a 60-460 μs time window at pH 4. Measurements were taken in NH4CH3CO2 (pH 4 and 5), MES (pH 5.5, 6 and 6.5), HEPES (pH 7) and NH4HCO3 (pH 8) buffers (all 0.1 M with 0.1 M NaCl).
A benefit of the long-lived lifetime of emission for the lanthanides is the possibility of performing time-gated measurements. Further to this, as a result of the ‘switch-on’ nature of complex 18, the unprotonated and protonated forms differ in emission lifetime. These properties allow the unique opportunity to control, to some degree, the apparent pKa value as well as the relative degree of ‘switching-on’ of the probe by changing the time window. This aspect is illustrated in practice using appropriate buffers of different pH (in the presence of 0.1 M NaCl) in FIG. 28.
By measuring the emission intensity of the hypersensitive ΔJ=2 band at different pH with a longer delay time after excitation (FIG. 28 top), a shallower curve was obtained (a lower apparent pKa).
A summary of the ratios of emission intensity (at λem=613.5 nm) at pH 4 (sensor on) and pH 8 (sensor off), where the emission signal was measured between different time windows, for complex 18 is presented in Table 4.
The extent of the switch-on response of the complex may be quantified, for comparison purposes, as the ratio of the emission intensity at the maximum of the ΔJ=2 band at pH 4, when the sensor is fully switched ‘on’, and pH 8, when the sensor is effectively ‘off’.

Compound `CCN(CC)c1cc(C#Cc2cc(CN3CCN(Cc4cccc(P(C)(=O)[O-])n4)CCN(Cc4cc(C#Cc5ccc(OC)c(N(CC)CC)c5)cc(P(C)(=O)[O-])n4)CC3)nc(P(C)(=O)[O-])c2)ccc1OC.[Eu+3]` [Complex 18] gave a Q.Y. pH 4 in data set [1] (pH 4) of 17.6%. The same compound had a Q.Y. pH 8 in data set [1] (pH 8) of 0.2%. Besides, the pKa (usually the pH at which an ionisable group is half protonated) in data set [2] is 6.3. Moreover, in data set [3] (excitation wavelength), the “λexc (nm)” value was 328 nm. For the same compound, the “ε” value in data set [3] (molar extinction coefficient at λexc) turned out to be 35000 M⁻¹ cm⁻¹. Also, the Excited state lifetime in data set [4] (pH 3) is recorded as 1 ms; in data set [4] (pH 4, listed as 18) it was 1 ms; in data set [4] (pH 4, listed as drawing 63), 1.00 ms; in data set [4] (pH 5), 0.96 ms; in data set [4] (pH 6), 0.78 ms; in data set [4] (pH 7) it was 0.47 ms. Moreover, the Excited state lifetime in data set [4] (pH 8) and in data set [4] (pH 9) was 0.34 ms throughout. The figures for the “ratio of emission intensity pH 4/pH 8” value in data set [5] (time window 60-460 μs), in data set [5] (time window 1000-2000 μs) and in data set [5] (time window 1500-2500 μs) were 32, 227 and 465, respectively.

These data come from patent US20230382928A1, “EUROPIUM(III) COMPLEXES AS PH SENSORS” (CISBIO BIOASSAYS, priority 2020, published 2023).
